For experiment [1], the system named is BM-derived cultures (CD45+/CD11b+ macrophages, Sca1+ monocytes). In words: Flow cytometry of BM-derived expansion cultures. Format: cell-based, mouse. The following applies: BM-derived cultures, 1 μM up to P2. As to the method: (§1) c. Expansion of Human BM and Mouse BM and CB-Derived Cells Assay • 1. […] Cultures were allowed to grow for 10-14 days until adherent cells achieved 70 to 80% confluence. Mouse cultures were maintained under normal (5% CO2) or hypoxic conditions (5% CO2/5% O2) at 37 C in a cell culture incubator. Human cultures were maintained under 5% CO2 at 37 C in a humidified cell culture incubator. • 3. Adherent cells were passaged by releasing cultures from flask. Cultures were washed with 5 mL PBS and then 5 mL of 0.25% trypsin solution ([…] catalogue #07901) was added and the flasks incubated for 10 min at 37 C. To each flask, 5 mL complete medium was added to stop trypsin activity. • 4. Released cells were collected into a tube and centrifuged at 300×g for 5 minutes. • 5. Cells were resuspended in 2 mL of medium and counted using a hemocytometer. • 6. […] P1 cultures were incubated until they reached 70 to 80% confluence. • 8. Passaged cultures can be used at any time from P0 to P10 as needed for different applications.
(§2) d. Flow Cytometry Analysis • 1. Cultures of BM and CB-derived cells were trypsinized for 10 minutes and an equal volume of complete medium was added to cultures to stop trypsin activity • 2. Cell suspension was filtered through a 40 μm strainer, and cells counted using a hemocytometer • 3. Suspension was spun down at 300×g for 5 minutes. • 4. Supernatant was removed and cell pellet resuspended in FACS buffer (PBS with 2% FBS and 1 mM EDTA) • 5. A total of 1×10^5 cells in 300 μL FACS buffer was used for each flow cytometry analysis tube, including unstained, viability, compensation, and isotype controls. • 6. Cell suspensions were stained with fluorophore-labeled antibodies against CD45, CD11b, and Sca1, CD29, and viability dye. • 7. Cell suspensions were analyzed on a flow cytometer using compensation and isotype control to determine laser voltage and gating. • 8. Samples were gated on viable CD45^+ cells and 10,000 events per sample were collected. Alternatively, cells were gated on viable CD45^− cells and out of this gate the proportion of CD29+/Sca1^+ cells obtained.

Experiment [2] concerns CB-derived cultures (CD45+/CD11b+ macrophages, Sca1+ monocytes). The experiment in a line: Flow cytometry of CB-derived expansion cultures. Format: cell-based, mouse. The settings on record: CB-derived cultures, 1 μM up to P2. The procedure:
as §1, §2
For orientation: Flow cytometry measures light scatter and fluorescence of single cells or particles in a stream.

Regarding `COc1cc(Oc2ccnc3cc(OC)c(OC)cc23)ccc1NC(=O)NC(C)c1nccs1` (centres unmarked) [KI20227, N-{4-[(6,7-dimethoxy-4-quinolyl)oxy]-2-methoxyphenyl}-N0-[1-(1,3-thiazole-2-yl)ethyl]urea], the “CD45+/CD11b+ mature macrophages, of viable cells” value in experiment [1] and in experiment [2] was < 2% each time.

Values taken from patent publication US10017741B2, “Compositions and methods for obtaining enriched mesenchymal stem cell cultures” (StemCell Technologies Inc., priority 2013, dated 2018).
